Test systems include 786-0; A549; CCRF-CEM; EKVX; HCT-15; HOP-62; K562; LOX IMVI; Malme-3M; NCI-H226; NCI-H460; RPMI-8226; SF-539; SK-MEL-28; SN12C; SW-620; KM12; SK-OV-3.
What all share (test): NCI anticancer screen, dose series, 48 h

Here are results for 13 molecules from ChEMBL document CHEMBL1201862, “PubChem BioAssay data set” (2004).

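Where inhibition never reached the appropriate level, the endpoint shown equals the highest concentration tested. Otherwise, values were interpolated linearly from a five-concentration, 48-hour dose response in 96-well plates. GI50 is the concentration that inhibits growth by half.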 The source made the active and inactive calls. No stated cut-off is given here; in the data, active = GI50 up to about 1.1 µM and inactive = higher. Some results are limits rather than exact numbers.

For `COc1ccc(-c2cc(O)c3cc4c(cc3n2)OCO4)cc1`, the GI50 is 73.1 µM (inactive) in the experiment with 786-0; > 100 µM (inactive) in the experiment on A549; > 100 µM (inactive) with CCRF-CEM; 19.9 µM (inactive) in the experiment on EKVX; more than 100 µM with HCT-15; 61 µM (inactive) in the experiment on HOP-62. The GI50 was > 100 µM (inactive) with K562; > 100 µM (inactive) with LOX IMVI; > 100 µM (inactive) with Malme-3M; 29 µM (inactive) in the experiment with NCI-H226; > 100 µM (inactive) with NCI-H460; > 100 µM (inactive) in the experiment with RPMI-8226. Besides, the GI50 in the experiment on SF-539, with SK-MEL-28, in the experiment on SN12C and in the experiment on SW-620 was > 100 µM (inactive) throughout.

With `CSC1NC=Nc2c1sc(=S)n2-c1ccccc1` (stereo unspecified), the GI50 is > 100 µM (inactive) in the experiment on 786-0; > 100 µM (inactive) with A549; > 100 µM (inactive) with EKVX; more than 100 µM in the experiment with HCT-15; 24.2 µM (inactive) in the experiment on HOP-62; > 100 µM (inactive) with KM12. Also, the GI50 with LOX IMVI, with Malme-3M, in the experiment on NCI-H226, in the experiment on NCI-H460, in the experiment on RPMI-8226 and in the experiment on SF-539 was > 100 µM (inactive) each time. The GI50 in the experiment on SK-MEL-28, with SK-OV-3, in the experiment on SN12C and with SW-620 was > 100 µM (inactive) each time.

`CC1(C2CCC3(C)C(C2)C3Sc2ccccc2)OCCO1` (stereo unspecified): the GI50 in the experiment on 786-0 is 15.1 µM (inactive); in the experiment on A549, 24.2 µM (inactive); in the experiment with CCRF-CEM, 17.9 µM (inactive); in the experiment on EKVX it was 26.7 µM (inactive); with HCT-15, 31.9 µM; with HOP-62 it was 20.2 µM (inactive). For the same molecule, the GI50 with K562 was 17.1 µM (inactive); with KM12, 25.6 µM (inactive); in the experiment with LOX IMVI it was 23.7 µM (inactive); in the experiment with Malme-3M, 18.3 µM (inactive); in the experiment with NCI-H460 it was 20.4 µM (inactive); in the experiment with RPMI-8226, 13.5 µM (inactive). In addition, the GI50 was 20.8 µM (inactive) in the experiment on SF-539; 24.9 µM (inactive) with SK-MEL-28; 33 µM (inactive) in the experiment on SK-OV-3; 20.4 µM (inactive) with SN12C; 21.5 µM (inactive) with SW-620.

On to `CC1CC2OC(=O)CC2C[C@@H]1O[Si](C)(C)C(C)(C)C` (stereo partly specified), for which the GI50 with 786-0 was 80.9 µM (inactive); with A549, 88.3 µM (inactive); with CCRF-CEM, 36.8 µM (inactive); in the experiment on EKVX, > 100 µM (inactive); with HCT-15 it was 54.5 µM; with HOP-62, 48.9 µM (inactive). Besides, the GI50 in the experiment on K562 was 36.1 µM (inactive); in the experiment with KM12, 44.3 µM (inactive); with LOX IMVI, 55.7 µM (inactive); with Malme-3M, 65.3 µM (inactive); with NCI-H460 it was 75.7 µM (inactive); in the experiment on RPMI-8226, 21.7 µM (inactive). Moreover, the GI50 in the experiment with SF-539, with SK-OV-3, with SN12C and in the experiment with SW-620 was > 100 µM (inactive) in each case.

As for `NC1=NC(c2ccccc2)CC(c2cc(Cl)ccc2O)=N1` (stereo unspecified), the GI50 was 16.1 µM (inactive) in the experiment on 786-0; 14.3 µM (inactive) in the experiment on A549; 22.1 µM (inactive) in the experiment with CCRF-CEM; 15.3 µM (inactive) with EKVX; 16.2 µM (inactive) in the experiment on HOP-62; 10.1 µM (inactive) in the experiment with K562. In addition, the GI50 with KM12 was 13.7 µM (inactive); with LOX IMVI, 15.5 µM (inactive); in the experiment with Malme-3M, 21.8 µM (inactive); in the experiment with NCI-H226, 21.2 µM (inactive); in the experiment on NCI-H460, 15.5 µM (inactive); with RPMI-8226, 15.2 µM (inactive). Besides, the GI50 in the experiment on SF-539 is 15 µM (inactive); with SK-MEL-28 it was 18.7 µM (inactive); in the experiment with SK-OV-3, 17.9 µM (inactive); in the experiment with SN12C, 13.6 µM (inactive); in the experiment with SW-620, 14.1 µM (inactive).

For `Cc1ccc(C2=Nc3ccccc3NC(=O)C2)cc1`, the GI50 is 77.8 µM (inactive) in the experiment with 786-0; > 100 µM (inactive) in the experiment with A549; 38 µM (inactive) in the experiment with CCRF-CEM; > 100 µM (inactive) in the experiment on EKVX; more than 100 µM in the experiment with HCT-15; > 100 µM (inactive) with HOP-62. For the same molecule, the GI50 in the experiment with K562 is > 100 µM (inactive); in the experiment with KM12, > 100 µM (inactive); in the experiment with LOX IMVI it was 95.1 µM (inactive); with Malme-3M, > 100 µM (inactive); with NCI-H226 it was 12.7 µM (inactive); in the experiment with NCI-H460 it was > 100 µM (inactive). Also, the GI50 in the experiment with SF-539 is > 100 µM (inactive); in the experiment on SK-MEL-28, > 100 µM (inactive); with SK-OV-3, > 100 µM (inactive); with SN12C it was > 100 µM (inactive); with SW-620, 27.7 µM (inactive).

Regarding `C=C1C(=O)O[C@H]2C[C@@H](C)[C@@H]3CC(=O)OC[C@@]3(C)CC12` (stereo partly specified), the GI50 in the experiment on 786-0 was 21.2 µM (inactive); in the experiment on A549, 27.8 µM (inactive); in the experiment on CCRF-CEM, 12.9 µM (inactive); in the experiment with EKVX, 27.5 µM (inactive); in the experiment on HCT-15, 29.4 µM; in the experiment on HOP-62, 44.8 µM (inactive). Moreover, the GI50 was 17.5 µM (inactive) in the experiment on K562; 20.5 µM (inactive) in the experiment with KM12; 24.9 µM (inactive) in the experiment on LOX IMVI; 17.9 µM (inactive) with Malme-3M; 18.8 µM (inactive) in the experiment on NCI-H460; 21.4 µM (inactive) in the experiment with RPMI-8226. The GI50 was 21.9 µM (inactive) in the experiment with SF-539; 19.7 µM (inactive) in the experiment with SK-MEL-28; 97.7 µM (inactive) with SK-OV-3; 21.6 µM (inactive) with SN12C; 16.7 µM (inactive) in the experiment with SW-620.

Turning to `C[C@@H]1C[C@H]2[C@@H]3CCC4=CC(=O)C=C[C@]4(C)[C@@]3(F)[C@@H](O)C[C@]2(C)[C@@]1(O)C(=O)CO` [DEXAMETHASONE], the GI50 is > 100 µM (inactive) in the experiment with 786-0; > 100 µM (inactive) in the experiment with A549; 0.0239 µM (active) in the experiment on CCRF-CEM; 83.6 µM (inactive) in the experiment with EKVX; more than 100 µM in the experiment with HCT-15; > 100 µM (inactive) in the experiment with HOP-62. The GI50 in the experiment with K562, in the experiment with KM12, in the experiment on LOX IMVI, with Malme-3M, with NCI-H226 and with SK-MEL-28 was > 100 µM (inactive) each time. The GI50 in the experiment on SK-OV-3 is > 100 µM (inactive); in the experiment with SN12C, < 0.01 µM (active); with SW-620 it was > 100 µM (inactive).

As for `C=CC1[C@H]2COC(C)(C)O[C@@H]2CC(=O)C1(C)C` (stereo partly specified), the GI50 in the experiment with 786-0 was 72.9 µM (inactive); with A549 it was > 100 µM (inactive); with EKVX, 54.2 µM (inactive); in the experiment with HOP-62, > 100 µM (inactive); in the experiment with KM12, > 100 µM (inactive); in the experiment on LOX IMVI it was > 100 µM (inactive). The GI50 with Malme-3M, in the experiment on NCI-H226, in the experiment with NCI-H460, in the experiment on SF-539, in the experiment on SK-MEL-28 and in the experiment on SN12C was > 100 µM (inactive) each time. For the same molecule, the GI50 in the experiment on SW-620 was > 100 µM (inactive).

For `CCNC(=O)OCc1c(COC(=O)NCC)c(-c2ccc(Cl)c(Cl)c2)n2c1CCC2`, the GI50 was 8.63 µM (inactive) with 786-0; 18.5 µM (inactive) with A549; 4.09 µM (inactive) in the experiment with CCRF-CEM; 13.6 µM in the experiment on HCT-15; 7.33 µM (inactive) in the experiment on HOP-62; 8.61 µM (inactive) with K562. Further, the GI50 with KM12 is 25.9 µM (inactive); in the experiment with Malme-3M it was 16.6 µM (inactive); with NCI-H226, 1.75 µM (inactive); in the experiment with NCI-H460, 4.61 µM (inactive); with RPMI-8226, 7.18 µM (inactive); in the experiment on SF-539 it was 11.5 µM (inactive). Moreover, the GI50 was 14.9 µM (inactive) in the experiment on SK-MEL-28 and 13.8 µM (inactive) with SW-620.

Take `N#CC1(Cc2ccccc2)CCCCN1C(=O)c1ccccc1` (stereo unspecified): the GI50 with 786-0 was > 100 µM (inactive); in the experiment with A549, > 100 µM (inactive); in the experiment on CCRF-CEM, > 100 µM (inactive); in the experiment on EKVX, > 100 µM (inactive); with HCT-15, more than 100 µM; in the experiment with HOP-62 it was > 100 µM (inactive). Moreover, the GI50 in the experiment with K562 is > 100 µM (inactive); in the experiment on KM12, > 100 µM (inactive); with LOX IMVI it was 84.7 µM (inactive); in the experiment on Malme-3M, > 100 µM (inactive); in the experiment with NCI-H460, > 100 µM (inactive); with RPMI-8226, > 100 µM (inactive). In addition, the GI50 in the experiment on SF-539, in the experiment on SK-MEL-28, with SK-OV-3, in the experiment with SN12C and in the experiment on SW-620 was > 100 µM (inactive) throughout.

In the case of `COc1ccc(/C=C2\Cc3ccccc3C2=O)cc1OC`, the GI50 is > 100 µM (inactive) in the experiment with 786-0; > 100 µM (inactive) in the experiment on A549; > 100 µM (inactive) in the experiment with CCRF-CEM; > 100 µM (inactive) with EKVX; more than 100 µM in the experiment with HCT-15; > 100 µM (inactive) in the experiment on HOP-62. The GI50 with K562, in the experiment with KM12, in the experiment with Malme-3M, in the experiment with NCI-H460, in the experiment on RPMI-8226 and with SK-MEL-28 was > 100 µM (inactive) each time. Also, the GI50 in the experiment with SK-OV-3, in the experiment with SN12C and in the experiment on SW-620 was > 100 µM (inactive) each time.

Turning to `CCOC(=O)CP(=S)(S)c1ccccc1` (stereo unspecified), the GI50 with 786-0, in the experiment with A549, in the experiment on CCRF-CEM, in the experiment on EKVX, in the experiment on HOP-62 and in the experiment with K562 was > 100 µM (inactive) throughout. Besides, the GI50 in the experiment on KM12, in the experiment on LOX IMVI, in the experiment with Malme-3M, in the experiment on NCI-H226, with NCI-H460 and in the experiment on SF-539 was > 100 µM (inactive) each time. The GI50 in the experiment on SK-MEL-28, with SK-OV-3, with SN12C and in the experiment with SW-620 was > 100 µM (inactive) each time.
